Earlier results on one compound are cited in patent US20250350689A1, “INTRAVENOUS DOFETILIDE AND USES THEREOF” (Hyloris Developments SA, priority 2023, published 2025).

The conditions of data set [1]: clinical studies, life threatening arrhythmias.
Assay in data set [2]: not given
The source holds these as a separate data set.

For data set [3], the system named is QTc interval. Conditions: slope of QTc versus dofetilide plasma concentration, Sedgwick et al.

Where “and” joins values, the source holds several entries; their conditions need not be identical. Equal entries are not always repeated. Where two headings read alike, the source gives them in different places.

In the case of `CN(CCOc1ccc(NS(C)(=O)=O)cc1)CCc1ccc(NS(C)(=O)=O)cc1` [dofetilide], the entries for the “safety in patients with poor heart function / heart failure” value in data set [1] and in data set [1] (listed as Dofetilide) were “not to increase life threatening arrhythmias” and “safe”, respectively. In addition, the “plasma concentration Cmax” value (500 μg oral dose, single dose) is 1.9 ng/mL. For the same compound, the “time to reach a steady state concentration” value (oral dofetilide) is on record as “at least 3 days”. Moreover, the plasma concentration in data set [2] (infusion of 3.0 μg/mL) is 5.35 ng/mL. In addition, the IV dofetilide kinetics result in data set [2] (relationship between IV dose and serum concentration) is listed as “linear”. Besides, the peak plasma concentration in data set [2] (single dose, 10 min. IV infusion of 1.5 μg/kg) was 1.74 ng/mL and 1.7 ng/mL. For the same compound, the “QTc change per plasma concentration” value in data set [3] was 15 to 25 ms/ng/mL.
